# Experimental data reported in BindingDB's records for PubMed 39914143 (COMSATS University Islamabad).
# Molecular target: T1, Amine oxidase [flavin-containing] B (Homo sapiens, UniProt P27338)
# T1 sequence (P27338 whole entry): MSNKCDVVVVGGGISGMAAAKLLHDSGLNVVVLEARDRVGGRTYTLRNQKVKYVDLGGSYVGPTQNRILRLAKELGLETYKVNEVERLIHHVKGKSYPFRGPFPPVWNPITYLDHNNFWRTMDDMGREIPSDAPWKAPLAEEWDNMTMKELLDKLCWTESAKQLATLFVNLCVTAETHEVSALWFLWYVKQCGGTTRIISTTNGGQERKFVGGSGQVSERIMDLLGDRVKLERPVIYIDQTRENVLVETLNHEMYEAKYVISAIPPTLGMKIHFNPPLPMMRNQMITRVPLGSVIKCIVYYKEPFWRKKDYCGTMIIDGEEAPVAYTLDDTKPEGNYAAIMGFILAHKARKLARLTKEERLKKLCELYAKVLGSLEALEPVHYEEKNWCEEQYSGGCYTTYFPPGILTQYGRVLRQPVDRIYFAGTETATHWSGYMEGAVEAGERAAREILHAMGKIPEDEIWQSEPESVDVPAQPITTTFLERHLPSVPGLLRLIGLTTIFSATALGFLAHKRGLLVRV
# Assay: Inhibition of MAO-B (unknown origin)
compound,measurement,value
CN(C)CCN1CCN(Cc2ccc(C(=O)Nc3nc4ccccc4s3)cc2)CC1,IC50,40 nM
